Columns and labels:
[1] = biological target: T1, human apo-transferrin (apo-Tf) (Homo sapiens, UniProt P02787); experiment: Apo-transferrin interaction by fluorescence quenching (Stern-Volmer, binding, van't Hoff); conditions: for Ka (association constant) / Ksv (Stern-Volmer quenching constant): PBS pH 7.40; for Kq (quenching rate constant): Kq = Ksv/τo, τo 2.5 ns; for H^0 (enthalpy change) / S^0 (entropy change): van't Hoff, 300 and 310 K
T1 construct: purchased Sigma-Aldrich
From the text: There are two mechanisms of fluorescence quenching, dynamic and static, that can be distinguished based on the temperature dependency. Dynamic quenching is due to collisions between quencher and fluorophore and static quenching results from the formation of the ground state complex between the molecules. A modified Stern–Volmer equation (Equation (3)) was used to calculate Stern–Volmer quenching constants (KSV) and quenching rate constants (Kq) of the interactions between apo-transferrin and copper complexes and to determine the mechanism of fluorescence quenching. Fo/(Fo − F) = 1/fa + 1/(faKsv[Q])(3)
In the equation, Fo and F are the fluorescence intensities of protein in the absence and presence of the quencher in the concentration (Q), respectively; KSV is the Stern–Volmer quenching constant; and fa is the fraction of the fluorophore accessible to the quencher.
Kq, the quenching rate constant of the biomolecules, is expressed as:Kq = Ksv/τo(4) where τo is the fluorescence lifetime of protein without quencher. For apo-transferrin, the τo value is 2.5 ns.
Association constants (Ka) and number of binding sites (n) were determined based on the Equation (5):log {(Fo − F)/F} = logKa + nlog[Q](5) where Fo and F are the fluorescence intensities in the absence and presence of the quencher in the concentration (Q), respectively, Ka is the binding constant, and n is the number of binding sites.
It is known that interactions between proteins and small molecules include hydrogen bonds, van der Waals, and electrostatic forces as well hydrophobic interactions. Based on thermodynamic parameters, we determined the type of interaction of copper complexes with apo-transferrin.
∆G^0 = ∆H^0 − T∆S^0(7) where Ka is the bimolecular binding constant at the corresponding temperature (T); R is the gas constant; and ΔH^0, ΔS^0, and ΔG^0 are enthalpy, entropy, and free energy change, respectively.
(§1) High purity apo-transferrin (≥ 98%, Sigma-Aldrich, Steinheim, North Rhine-Westphalia, Germany) was used without prior purification. The stock solutions of the complexes were prepared in demineralized water (1 and 2) or ethanol (3). The apo-Tf was dissolved in PBS (pH 7.40). The molar ratios of the final samples in PBS were (protein):(drug) = 1:0–1:16 in PBS with the protein concentration equal 2 μM. Samples were incubated at 300 and 310 K for 5 min. The apo-Tf concentration was determined using ε (280 nm) = 11.2 mM^−1 × cm^−1.
Emission fluorescence spectra were recorded on Jasco 8200 spectrofluorimeter (Tokyo, Japan) in the range of 300–500 nm using 1.0 cm quartz cells. The λex was set to 280 nm and the excitation and emission slit widths were set to 5 nm. All fluorescence intensities were corrected (according to Equation (8)) for the inner filter and dilution effects and the corrected values were used to determine the quenching mechanism and binding data. […] Therefore, all spectra are shown as different spectra of (apo-Tf-copper complex)−(copper complex). Fcorr = exp(A280 + Aem/2) × Fexp(8)

[2] = biological target: T1, human apo-transferrin (apo-Tf); experiment: Circular dichroism of apo-transferrin, alpha-helix content; assay type: binding; conditions: free protein 19.80%
Method: Circular dichroism (CD) measurements in the far UV region were performed to determine the effect of copper complexes on the apo-transferrin secondary structure. A characteristic for α-helical structure of protein negative bands was visible in the CD spectrum at wavelengths of 210 and 220 nm (Figure 7) and were assigned n-π* transitions peptide bonds. […] The α-helix content the free protein was equal to 19.80%.
as §1, with “The molar ratios of the final samples in PBS were (protein):(drug) = 1:0–1:16 in PBS with the protein concentration equal 2 μM.” left out
Circular dichroism measurements were carried out on a Jasco J-715 spectropolarimeter (Tokyo, Japan) in the range of 190–250 nm using 0.1-cm cuvettes. The α-helical content of the protein was calculated from the Equations (9) and (10):(9) MRE209= ObservedCDmdeg/Cp· n· l ·10 (10) α−helix %= −MRE209−4000/33000−4000×100 where MRE is the mean residue ellipticity, Cp is the molar concentration of the protein, n the number of amino acid residues (679), and l is the path length (0.1 cm).

[3] = molar ratio apo-Tf:complex 1:20

T1 sequence (P02787 20-698): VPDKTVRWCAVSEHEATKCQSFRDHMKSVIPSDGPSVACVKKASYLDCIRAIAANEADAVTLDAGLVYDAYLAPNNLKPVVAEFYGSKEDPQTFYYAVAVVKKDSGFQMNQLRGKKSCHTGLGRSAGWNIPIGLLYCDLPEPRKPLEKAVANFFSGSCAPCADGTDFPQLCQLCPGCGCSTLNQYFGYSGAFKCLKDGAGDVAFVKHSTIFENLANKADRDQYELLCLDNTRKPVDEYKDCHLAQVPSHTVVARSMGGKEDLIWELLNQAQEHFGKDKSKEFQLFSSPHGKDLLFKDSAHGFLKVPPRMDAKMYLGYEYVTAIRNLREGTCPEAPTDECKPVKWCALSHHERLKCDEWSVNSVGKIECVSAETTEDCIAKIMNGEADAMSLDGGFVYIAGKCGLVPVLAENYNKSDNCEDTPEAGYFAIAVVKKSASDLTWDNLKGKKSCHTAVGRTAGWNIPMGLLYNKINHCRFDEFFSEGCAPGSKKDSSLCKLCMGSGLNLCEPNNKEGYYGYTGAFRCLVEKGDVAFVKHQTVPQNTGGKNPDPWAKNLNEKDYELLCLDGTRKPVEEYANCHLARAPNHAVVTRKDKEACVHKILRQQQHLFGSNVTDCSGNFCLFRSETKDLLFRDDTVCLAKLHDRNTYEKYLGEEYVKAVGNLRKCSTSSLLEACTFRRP

Row | Compound | G^0 (free energy change) ([1]; 300 K) | Ksv values ([1]; 300 K) | n (number of binding sites) ([1]; 300 K) | Ka (association constant) ([1]; 300K) | Ksv (Stern-Volmer quenching constant) ([1]; 300K) | G^0 (free energy change) ([1]; 310 K) | Ksv values ([1]; 310 K) | n (number of binding sites) ([1]; 310 K) | Kq (quenching rate constant) ([1]; 310K) | Ka (association constant) ([1]; 310K) | Ksv (Stern-Volmer quenching constant) ([1]; 310K) | H^0 (enthalpy change) [1] | S^0 (entropy change) [1] | α-helix content of apo-Tf upon binding ([2]; molar ratio apo-Tf:complex 1:10) | α-helix content of apo-Tf upon binding [2, 3] | Kq (quenching rate constant) ([1]; 300K)
1 | CC#N.Cc1ccc2ccc3ccc(C)nc3c2n1.O=[N+]([O-])[O-].O=[N+]([O-])[O-].[Cu+2] [Complex 3, [Cu(NO3)2(dmphen)]∙MeCN] | -9.563 kcal/mol | 53700 M⁻¹ | 1.40 ± 0.076 | 9.26 ± 0.37 ·10^6 [M^−1] | 5.37 ± 0.023 ·10^4 [M^−1] | -9.888 kcal/mol | 35100 M⁻¹ | 1.42 ± 0.068 | 1.40 ± 0.062 ·10^13 [M^−1s^−1] | 9.38 ± 0.33 ·10^6 [M^−1] | 3.51 ± 0.062 ·10^4 [M^−1] | 230 kcal/mol | 136.57 J mol^−1 K^−1 | 17.05% | 8.16% | 
2 | Cc1ccc2ccc3ccc(C)nc3c2n1.Cc1ccc2ccc3ccc(C)nc3c2n1.F[P-](F)(F)(F)(F)F.[Cl-].[Cu+2] [Complex 2, [Cu(Cl)(dmphen)2][PF6]] | -9.118 kcal/mol |  | 1.35 ± 0.050 | 4.38 ± 0.24 ·10^6 [M^−1] | 4.03 ± 0.050 ·10^4 [M^−1] | -9.19 kcal/mol |  | 1.31 ± 0.066 | 2.27 ± 0.024 ·10^13 [M^−1s^−1] | 3.04 ± 0.32 ·10^6 [M^−1] | 5.69 ± 0.024 ·10^4 [M^−1] | -6.75 kcal/mol | 33.02 J mol^−1 K^−1 |  | 18.00% | 1.61 ± 0.050 ·10^13 [M^−1s^−1]
3 | Cc1ccc2ccc3ccc(C)nc3c2n1.F[P-](F)(F)(F)(F)F.O=P12CN3CN(CN(C3)C1)C2.O=[N+]([O-])[O-].[Cu+2] [Complex 1, [Cu(NO3)(PTA=O)(dmphen)][PF6]] | -8.253 kcal/mol |  | 1.26 ± 0.033 | 1.03 ± 0.16 ·10^6 [M^−1] | 2.50 ± 0.011 ·10^4 [M^−1] | -8.406 kcal/mol |  | 1.24 ± 0.036 | 1.17 ± 0.029 ·10^13 [M^−1s^−1] | 0.843 ± 0.17 ·10^6 [M^−1] | 2.92 ± 0.029 ·10^4 [M^−1] | -3.664 kcal/mol | 63.99 J mol^−1 K^−1 |  | 19.07% | 1.00 ± 0.011 ·10^13 [M^−1s^−1]
